From patent US8841343B2, “Composition for repelling mosquitoes” (Bio & Hnt, Inc., priority 2006, dated 2014)

Test system: Aedes aegypti
Assay: Examination of repellent activity using skin test (treated human forearm in cage of about 100 mated female mosquitoes)
Format: in vivo
Conditions: for Effective repellency duration (hour) (mean ± standard deviation): maximum measurement time 12 hours
Source text: Citronellic acid and geranic acid, which are used in the present invention, are commercially available or can directly be synthesized. In this embodiment, products of Aldrich Co. (product names are respectively Citronellic acid and Geranic acid) were purchased and used as citronellic acid and geranic acid. Purities of the above two compounds were examined using a gas chromatograph (GC) and a gas chromatograph-mass spectrometry (GC-MS). The compounds having purity of 99.5% or greater were only used. Respective ingredients of the above compounds were added to isopropyl alcohol of 91% to make test samples consisting of a solution in the concentration of 0.5 to 50%. The samples were used for mosquito repellent efficacy experiments.
The test samples manufactured as above underwent repellent effective experiments with respect to Aedes which is a main mosquito group attacking human.
In this embodiment, Aedes aegypti was used as test mosquitoes. The Aedes aegypti was supplied from Korea Research Institute of Bioscience and Biotechnology and reared indoor from generation to generation.
The larvae of the Aedes aegypti were reared in a plastic container of 22×14×7 cm containing distilled water with small amount of one-to-one mixture of chicken feed and yeast. Fresh mosquito pupae were transferred into a paper cup containing water and then placed in a transparent rearing cage to emerge as adults. Here, the rearing cage was constructed with metal net. Males and females of the freshly emerged mosquitoes were transferred to a rearing cage at one-to-one ratio, and left for two or three days for mating. The female mosquitoes were then used for repellency tests. Eight percent (8%) sugar water was supplied for the adult mosquitoes. The following rearing conditions were maintained: light condition of 16 h:8 h (day:night), temperature of 27±2° C., and relative humidity of 80±10%.
In order to examine effectiveness of the mosquito repellent of the prepared sample solutions, one (1) ml of a sample solution was uniformly applied, using a metal rod, on a forearm of a volunteer human test subject between wrist and elbow. Thereafter, the arm treated with the test solution was inserted in a bioassay cage, constructed with Plexiglass of 50×50×50 cm containing approximately 100 mated female mosquitoes. The number of mosquitoes trying to bite was recorded for three minutes in every thirty minutes for up to 4 hours or in every hour for up to 12 hours. The time required to get the arm bitten by two cumulative mosquitoes was regarded as effective repellency duration. A net window of 40×40 cm was present at each side and top of the Plexiglass bioassay cage to allow air ventilation. A 15×15 cm hole was prepared at the front side of the Plexiglass bioassay cage and a long net sleeve was attached to the hole so that the test arm could be put into the cage for repellency test.
At the beginning of each repellency test, an arm treated with no solvent was placed in the bioassay cage containing mosquitoes, in order to examine blood feeding activity of the mated female test mosquitoes. The repellency tests with the test solutions were carried out only when the arm was bitten by at least two mosquitoes for initial three minutes.
Repellent activity against Aedes was examined in accordance with the aforementioned method using the samples which respectively contain citronellic acid and geranic acid. Also, mosquito repellent activity was measured with solutions which contain DEET and Picadirin, wherein the DEET and Picadirin are commercially available mosquito repellents which are currently recommended by the Center for Disease Control of the United States.
In Table 4 to Table 6, the repellent efficiency was calculated using the following Equation 1.

[1] = 10% (0.25 mg/cm^3), 120 minutes
[2] = 10% (0.25 mg/cm^3), 150 minutes
[3] = 10% (0.25 mg/cm^3), 180 minutes
[4] = 10% (0.25 mg/cm^3), 210 minutes
[5] = 10% (0.25 mg/cm^3), 240 minutes
[6] = concentration 10% (0.25 mg/cm^3), time until two cumulative bites, maximum measurement time 240 minutes

CC(C)=CCC/C(C)=C/C(=O)O [Geranic acid, geranic acid]
Repellent efficiency (%) per time (minutes) (2% (0.05 mg/cm^3), 30 minutes): 100%
Repellent efficiency (%) per time (minutes) (2% (0.05 mg/cm^3), 60 minutes): 100%
Repellent efficiency (%) per time (minutes) (2% (0.05 mg/cm^3), 90 minutes): 100%
Repellent efficiency (%) per time (minutes) (2% (0.05 mg/cm^3), 120 minutes): 100%
Repellent efficiency (%) per time (minutes) (2% (0.05 mg/cm^3), 150 minutes): 83.3%
Repellent efficiency (%) per time (minutes) (2% (0.05 mg/cm^3), 180 minutes): 50.0%
Repellent efficiency (%) per time (minutes) (2% (0.05 mg/cm^3), 210 minutes): 50.0%
Repellent efficiency (%) per time (minutes) (2% (0.05 mg/cm^3), 240 minutes): 33.3%
Repellent efficiency (%) per time (minutes) (10% (0.25 mg/cm^3), 30 minutes): 100%
Repellent efficiency (%) per time (minutes) (10% (0.25 mg/cm^3), 60 minutes): 100%
Repellent efficiency (%) per time (minutes) (10% (0.25 mg/cm^3), 90 minutes): 100%
Repellent efficiency (%) per time (minutes) [1]: 100%
Repellent efficiency (%) per time (minutes) [2]: 100%
Repellent efficiency (%) per time (minutes) [3]: 100%
Repellent efficiency (%) per time (minutes) [4]: 100%
Repellent efficiency (%) per time (minutes) [5]: 87.5%
Repellent efficiency (%) per time (hours) (15% (0.375 mg/cm^3), 1 hour): 100%
Repellent efficiency (%) per time (hours) (15% (0.375 mg/cm^3), 2 hours): 100%
Repellent efficiency (%) per time (hours) (15% (0.375 mg/cm^3), 3 hours): 100%
Repellent efficiency (%) per time (hours) (15% (0.375 mg/cm^3), 4 hours): 81.8%
Repellent efficiency (%) per time (hours) (15% (0.375 mg/cm^3), 5 hours): 72.7%
Repellent efficiency (%) per time (hours) (15% (0.375 mg/cm^3), 6 hours): 54.5%
Repellent efficiency (%) per time (hours) (15% (0.375 mg/cm^3), 7 hours): 54.5%
Repellent efficiency (%) per time (hours) (15% (0.375 mg/cm^3), 8 hours): 54.5%
Repellent efficiency (%) per time (hours) (15% (0.375 mg/cm^3), 9 hours): 45.5%
Repellent efficiency (%) per time (hours) (30% (0.75 mg/cm^3), 1 hour): 100%
Repellent efficiency (%) per time (hours) (30% (0.75 mg/cm^3), 2 hours): 100%
Repellent efficiency (%) per time (hours) (30% (0.75 mg/cm^3), 3 hours): 100%
Repellent efficiency (%) per time (hours) (30% (0.75 mg/cm^3), 4 hours): 100%
Repellent efficiency (%) per time (hours) (30% (0.75 mg/cm^3), 5 hours): 100%
Repellent efficiency (%) per time (hours) (30% (0.75 mg/cm^3), 6 hours): 85.7%
Repellent efficiency (%) per time (hours) (30% (0.75 mg/cm^3), 7 hours): 85.7%
Repellent efficiency (%) per time (hours) (30% (0.75 mg/cm^3), 8 hours): 85.7%
Repellent efficiency (%) per time (hours) (30% (0.75 mg/cm^3), 9 hours): 85.7%
Repellent efficiency (%) per time (hours) (30% (0.75 mg/cm^3), 10 hours): 85.7%
Repellent efficiency (%) per time (hours) (30% (0.75 mg/cm^3), 11 hours): 78.6%
Repellent efficiency (%) per time (hours) (30% (0.75 mg/cm^3), 12 hours): 71.4%
Repellent efficiency (%) per time (hours) (50% (1.25 mg/cm^3), 1 hour): 100%
Repellent efficiency (%) per time (hours) (50% (1.25 mg/cm^3), 2 hours): 100%
Repellent efficiency (%) per time (hours) (50% (1.25 mg/cm^3), 3 hours): 100%
Repellent efficiency (%) per time (hours) (50% (1.25 mg/cm^3), 4 hours): 100%
Repellent efficiency (%) per time (hours) (50% (1.25 mg/cm^3), 5 hours): 100%
Repellent efficiency (%) per time (hours) (50% (1.25 mg/cm^3), 6 hours): 100%
Repellent efficiency (%) per time (hours) (50% (1.25 mg/cm^3), 7 hours): 100%
Repellent efficiency (%) per time (hours) (50% (1.25 mg/cm^3), 8 hours): 100%
Repellent efficiency (%) per time (hours) (50% (1.25 mg/cm^3), 9 hours): 100%
Repellent efficiency (%) per time (hours) (50% (1.25 mg/cm^3), 10 hours): 100%
Repellent efficiency (%) per time (hours) (50% (1.25 mg/cm^3), 11 hours): 90%
Repellent efficiency (%) per time (hours) (50% (1.25 mg/cm^3), 12 hours): 80%
repellency (in words) (at the level of 0.0125 mg/cm^3): did not represent any repellency
time for which repellent efficiency of 100% was shown (at the level of 0.05 mg/cm^3): 120 min
time for which repellent efficiency of 100% was shown (at the level of 0.25 mg/cm^3): 210 min
Effective repellency duration (minute) (mean ± standard deviation) (concentration 0.5% (0.0125 mg/cm^3), time until arm bitten by two cumulative mosquitoes): 0 ± 0 min
Effective repellency duration (minute) (mean ± standard deviation) (concentration 2% (0.05 mg/cm^3), time until arm bitten by two cumulative mosquitoes): 195 ± 45.0 min
Effective repellency duration (minute) (mean ± standard deviation) (concentration 2% (0.05 mg/cm^3), time until arm bitten by two cumulative mosquitoes, listed as geranic acid): 195 min
Effective repellency duration (minute) (mean ± standard deviation) [6]: 240 ± 0 min
Effective repellency duration (minute) (mean ± standard deviation) (concentration 10% (0.25 mg/cm^3), time until two cumulative bites, maximum measurement time 240 minutes, listed as geranic acid): 240 min
Effective repellency duration (hour) (mean ± standard deviation) (concentration 15% (0.375 mg/cm^3)): 6.7 ± 1.20 h
Effective repellency duration (hour) (mean ± standard deviation) (concentration 30% (0.75 mg/cm^3)): 10.0 ± 2.00 h
Effective repellency duration (hour) (mean ± standard deviation) (concentration 30% (0.75 mg/cm^3), listed as geranic acid): 10 h
Effective repellency duration (hour) (mean ± standard deviation) (concentration 50% (1.25 mg/cm^3)): 12.0 ± 0 h
Effective repellency duration (hour) (mean ± standard deviation) (concentration 50% (1.25 mg/cm^3), listed as geranic acid): 12 h
repellent efficiency (for 10 hours at the level of 0.75 mg/cm^3): ~90%
repellent efficiency (for 10 hours at the level of 1.25 mg/cm^3): 100%

CCC(C)OC(=O)N1CCCCC1CCO (stereo not drawn) [Picadirin, reference compound]
Repellent efficiency (%) per time (minutes) (10% (0.25 mg/cm^3), 30 minutes): 85.0%
Repellent efficiency (%) per time (minutes) (10% (0.25 mg/cm^3), 60 minutes): 85.0%
Repellent efficiency (%) per time (minutes) (10% (0.25 mg/cm^3), 90 minutes): 85.0%
Repellent efficiency (%) per time (minutes) [1]: 80.0%
Repellent efficiency (%) per time (minutes) [2]: 75.0%
Repellent efficiency (%) per time (minutes) [3]: 72.5%
Repellent efficiency (%) per time (minutes) [4]: 62.5%
Repellent efficiency (%) per time (minutes) [5]: 47.5%
time for which repellent efficiency of 100% was shown (at the level of 0.25 mg/cm^3): less than 30 minutes
Effective repellency duration (minute) (mean ± standard deviation) [6]: 158 min
Effective repellency duration (minute) (mean ± standard deviation) (concentration 10% (0.25 mg/cm^3), time until two cumulative bites, maximum measurement time 240 minutes, listed as Picadrin): 158 ± 27.5 min
